Among the data in patent US10844013B2, “Phenyl amino piperidine mTORC inhibitors and uses thereof” (Navitor Pharmaceuticals, Inc., priority 2016, dated 2020) are IC50 values, retold here.

Type in all cases: cell-based
The subject of experiment [1] is pAKT (p-Akt 1/2/3 (Ser473)) in MCF-7 cells. Kind of experiment: AlphaLISA Ultra pAKT assay. Put shortly:
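MCF-7 cells seeded 20-24 h, medium refreshed for 2 h, then treated with compounds for 2 h at 0.5% final DMSO. Lysates frozen at −80 °C, then pAKT detected by AlphaLISA with acceptor and donor beads, 2 h each.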

The subject of experiment [2] is pS6K1 (p-p70 S6 Kinase (Thr389)) in MCF-7 cells. Kind of experiment: AlphaLISA Ultra pS6K1 assay. Particulars: 2 hours compound incubation. Summed up: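 MCF-7 cells seeded 20–24 h, medium refreshed 2 h, then treated 2 h with compound (0.5% DMSO final). Lysates probed for Thr389-phosphorylated p70 S6K by AlphaLISA Ultra, 2 h acceptor then 2 h donor bead incubation, read on a multimode reader.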

Another experiment deals with MCF-7 cells. Kind of experiment: Radioactive glucose uptake in MCF-7 cells. The note with it: Homo sapiens, MCF7, 3H-2DG uptake. On the procedure:
Example 157: Radioactive Glucose Uptake in MCF-7 Cells
Assay Protocol • 1. Seed approximately 12,000 MCF-7 cells cultured without insulin per well in 96-well plates (BIOCOAT, #356690) and let the cells sit in hood for 30 min. (Cell culture medium: DMEM+10% FBS). • 2. Put the cell culture plates in TC incubator (5% CO2, 37° C.) and incubate overnight. • 3. Take out the cell plates and wash with prewarmed KRH buffer (37° C.) three times using BioTek plate washer. (KRH buffer preparation: 136 mM NaCl, 4.7 mM KCl, 1.25 mM MgCl2, 1.2 mM CaCl2), 20 mM HEPES, 0.1 mg/ml sodium pyruvate, 0.1% BSA, pH 7.4). • 4. Compound preparation and treatment: • a) Add 12 ul compound stock in 100% DMSO to the first column of Echo LDV plate • b) Serially dilute the compound solution in 100% DMSO (4 uL+8 uL DMSO) using Bravo for 9 doses • c) Dispense 350 nL compounds using Echo to the working plate. • d) i) Without compound preincubation condition, dispense 116 uL KRH buffer containing tritiated 2-deoxy-D-glucose (3H-2DG) and 2-deoxy-D-glucose (2DG) to the working plate and mix. • ii. With compound preincubation condition, dispense 110 uL KRH buffer only to the working plates and mix • e) Keep the compound working plate at 37° C. incubator until use • 5. Discard the KRH buffer (cells were kept in KRH buffer for 10-15 min before 2-DG addition) and transfer 100 uL compound working solution out to the cell culture plate using Bravo. Incubate for 20 mins at 37° C. (2DG final at 0.2 mM, 3H-2DG at 10 uCi/mL). • 6. Add prewarmed 50 uL KRH buffer (37° C.) containing 60 mM cold 2DG to the wells to stop the 2DG uptake using Multidrop combi • 7. Wash the cells with prewarmed PBS three times using BioTek plate washer • 8. Add 50 uL lysis buffer (0.1 M NaOH) into the assay plate to lyse the cells using Bravo and shake at 800 rpm for 30 min. • 9. Mix and transfer 20 uL lysate to a new white plate (Corning, #3610) and add 200 uL MicroScint-20 using Bravo • 10. Shake the plate at 1000 rpm for 30 min and count in a MicroBeta plate reader.

Setting [3] is: Homo sapiens, MCF7, 2 hours compound incubation.

Where a name gives a salt, the structure may show the parent alone. Read-outs that look alike come from different tables or passages of the source.

With `Cc1cc(C)c(C(=O)N2CCN(c3ccccn3)C(CO)C2)cc1NC1CCN(c2ccccc2C#N)CC1` (single isomer, unassigned) [I-48, 2-[4-({5-[(3R or 3S)-3-(hydroxymethyl)-4-(pyridin-2-yl)piperazine-1-carbonyl]-2,4-dimethylphenyl}amino)piperidin-1-yl]benzonitrile], the concentration for half-maximal inhibition (IC50) in experiment [1] (setting [3]) was over 10000 nM; in experiment [2] (Homo sapiens, MCF7, 2 h), 10 to 1000 nM; with MCF-7 cells, 10 to 1000 nM.

With `Cc1cc(C)c(C(=O)N2CCN(c3ccccc3S(C)(=N)=O)CC2)cc1NC1CCN(c2ccccc2C#N)CC1` (single isomer, unassigned) [I-49, 2-(4-{[5-(4-{2-[(S or R)-imino(methyl)oxo-λ^6-sulfanyl]phenyl}piperazine-1-carbonyl)-2,4-dimethylphenyl]amino}piperidin-1-yl)benzonitrile], the IC50 is over 10000 nM in experiment [1] (setting [3]), 10 to 1000 nM in experiment [2] (read-out: pS6K1 in MCF7: IC50) and 10 to 1000 nM in the experiment with MCF-7 cells.

Regarding `Cc1cc(C)c(C(=O)N2CCN(c3ccccc3C#N)[C@H](CO)C2)cc1NC1CCN(c2ccccc2C#N)CC1` (single isomer, unassigned) [I-79, 2-[4-({5-[(3S or 3R)-4-(2-Cyanophenyl)-3-(hydroxymethyl)piperazine-1-carbonyl]-2,4-dimethylphenyl}amino)piperidin-1-yl]benzonitrile], the IC50 in experiment [1] (setting [3]) is over 10000 nM; in experiment [2] (Homo sapiens, MCF7, 2 h), 10 to 1000 nM; with MCF-7 cells it was 10 to 1000 nM.

On to `Cc1cc(C)c(C(=O)N2CCN(c3cccc(F)c3[S@@](C)(=N)=O)CC2)cc1NC1CCN(c2ccccc2C#N)CC1` (single isomer, unassigned) [I-88], for which the IC50 in experiment [1] (setting [3]) was over 10000 nM; in experiment [2] (Homo sapiens, MCF7, 2 h), 10 to 1000 nM; in the experiment with MCF-7 cells, 10 to 1000 nM.

Regarding `Cc1cc(C)c(C(=O)N2CCN(c3cccnc3[S@](C)(=N)=O)CC2)c(C)c1NC1CCN(c2ncccc2Cl)CC1` (stereo in doubt) [I-176, (3-(4-(3-((1-(3-chloropyridin-2-yl)piperidin-4-yl)amino)-2,4,6-trimethylbenzoyl)piperazin-1-yl)pyridin-2-yl)(imino)(methyl)-16-sulfanone Trifluoroacetate Salt], the IC50 in experiment [1] (2 hours compound incubation, read-out: pAKT in MCF7: IC50) was over 10000 nM; in the experiment with MCF-7 cells it was 10 to 1000 nM.

For `Cc1cc(C)c(N(CCO)C2CCN(c3ccccc3C#N)CC2)cc1C(=O)N1CCN(c2ccccc2S(N)(=O)=O)CC1` [I-1, 2-(4-(5-((1-(2-Cyanophenyl)piperidin-4-yl)(2-hydroxyethyl)amino)-2,4-dimethylbenzoyl)piperazin-1-yl)benzenesulfonamide], the IC50 in experiment [1] (setting [3]) is over 10000 nM; in experiment [2] (Homo sapiens, MCF7, 2 h), 10 to 1000 nM; with MCF-7 cells it was 10 to 1000 nM.

On to `Cc1cc(C)c(C(=O)N2CCN(c3cccnc3S(N)(=O)=O)CC2)c(C)c1NC1CCN(c2ccccc2C#N)CC1` [I-2, 3-(4-(3-(1-(2-Cyanophenyl)piperidin-4-ylamino)-2,4,6-trimethylbenzoyl)piperazin-1-yl)pyridine-2-sulfonamide], for which the IC50 in experiment [1] (setting [3]) was over 10000 nM; in experiment [2] (Homo sapiens, MCF7, 2 h) it was 10 to 1000 nM; in the experiment with MCF-7 cells it was 10 to 1000 nM.

Turning to `Cc1cc(C)c(C(=O)N2CCN(c3cccnc3S(N)(=O)=O)CC2)cc1NC1CCN(c2ccccc2C#N)CC1` [I-3, 3-(4-(5-(1-(2-Cyanophenyl)piperidin-4-ylamino)-2,4-dimethylbenzoyl)piperazin-1-yl)pyridine-2-sulfonamide], the concentration for half-maximal inhibition (IC50) in experiment [1] (setting [3]) is over 10000 nM; in experiment [2] (Homo sapiens, MCF7, 2 h) it was 10 to 1000 nM; in the experiment with MCF-7 cells it was 10 to 1000 nM.

Take `Cc1cc(C)c(C(=O)N2CCN(c3cccc(S(N)(=O)=O)c3)CC2)cc1NC1CCN(c2ccccc2Cl)CC1` [I-4, 3-(4-(5-(1-(2-Chlorophenyl)piperidin-4-ylamino)-2,4-dimethylbenzoyl)piperazin-1-yl)benzenesulfonamide]: the IC50 in experiment [1] (setting [3]) is over 10000 nM; in experiment [2] (Homo sapiens, MCF7, 2 h) it was 1000 to 3000 nM; in the experiment with MCF-7 cells, over 10000 nM.

With `Cc1cc(C)c(C(=O)N2CCN[C@@H](CO)C2)cc1NC1CCN(c2ccccc2C#N)CC1` [I-6, (R)-2-(4-(5-(3-(Hydroxymethyl)piperazine-1-carbonyl)-2,4-dimethylphenylamino)piperidin-1-yl)benzonitrile], the half-maximal inhibitory concentration (IC50) in experiment [1] (setting [3]) is over 10000 nM; in experiment [2] (Homo sapiens, MCF7, 2 h), over 10000 nM; in the experiment on MCF-7 cells, over 10000 nM.

On to `Cc1nc(C)c(C(=O)N2CCN(c3ccccc3S(N)(=O)=O)CC2)cc1NC1CCN(c2ccccc2C#N)CC1` [I-12, 2-(4-(5-(1-(2-Cyanophenyl)piperidin-4-ylamino)-2,6-dimethylnicotinoyl)piperazin-1-yl)benzenesulfonamide], for which the half-inhibitory concentration (IC50) in experiment [1] (setting [3]) was over 10000 nM; in experiment [2] (Homo sapiens, MCF7, 2 h) it was over 10000 nM; in the experiment with MCF-7 cells it was over 10000 nM.

For `Cc1cc(C)c(C(=O)N2CCN(c3cccc(F)c3S(N)(=O)=O)CC2)c(C)c1NC1CCN(c2ccccc2C#N)CC1` [I-14, 2-(4-(3-(1-(2-Cyanophenyl)piperidin-4-ylamino)-2,4,6-trimethylbenzoyl)piperazin-1-yl)-6-fluorobenzenesulfonamide], the half-maximal inhibitory concentration (IC50) in experiment [1] (setting [3]) was over 10000 nM; in experiment [2] (Homo sapiens, MCF7, 2 h) it was 10 to 1000 nM; in the experiment on MCF-7 cells it was 10 to 1000 nM.

As for `Cc1cc(C)c(C(=O)N2CCN(c3ncccc3S(N)(=O)=O)CC2)c(C)c1NC1CCN(c2ccccc2C#N)CC1` [I-15, 2-(4-(3-(1-(2-Cyanophenyl)piperidin-4-ylamino)-2,4,6-trimethylbenzoyl)piperazin-1-yl)pyridine-3-sulfonamide], the IC50 in experiment [1] (setting [3]) is over 10000 nM; in experiment [2] (Homo sapiens, MCF7, 2 h), 10 to 1000 nM; with MCF-7 cells it was 10 to 1000 nM.

For the molecule `Cc1ccc(NC2CCN(c3ccccc3C#N)CC2)cc1C(=O)N1CCN(c2ccccc2S(N)(=O)=O)CC1` [I-22, 2-(4-(5-(1-(2-Cyanophenyl)piperidin-4-ylamino)-2-methylbenzoyl)piperazin-1-yl)benzenesulfonamide], the IC50 in experiment [1] (setting [3]) is over 10000 nM; in experiment [2] (Homo sapiens, MCF7, 2 h), 3000 to 5000 nM; in the experiment on MCF-7 cells it was 3000 to 5000 nM.

`Cc1cc(C)c(C(=O)N2CCN(c3ncccc3S(N)(=O)=O)CC2)nc1NC1CCN(c2ccccc2C#N)CC1` [I-25, 2-(4-(6-(1-(2-Cyanophenyl)piperidin-4-ylamino)-3,5-dimethylpicolinoyl)piperazin-1-yl)pyridine-3-sulfonamide]: the concentration for half-maximal inhibition (IC50) in experiment [1] (setting [3]) is over 10000 nM; in experiment [2] (Homo sapiens, MCF7, 2 h), 10 to 1000 nM; in the experiment with MCF-7 cells, 10 to 1000 nM.

For the molecule `Cc1cc(C)c(C(=O)N2CCN(c3ccccc3S(N)(=O)=O)C[C@@H]2C)nc1NC1CCN(c2ccccc2C#N)CC1` [I-26, (S)-2-(4-(6-(1-(2-Cyanophenyl)piperidin-4-ylamino)-3,5-dimethylpicolinoyl)-3-methylpiperazin-1-yl)benzenesulfonamide], the 50% inhibitory concentration (IC50) in experiment [1] (setting [3]) was over 10000 nM; in experiment [2] (Homo sapiens, MCF7, 2 h), 10 to 1000 nM; in the experiment with MCF-7 cells it was 10 to 1000 nM.

Take `Cc1cc(C)c(C(=O)N2CCN(c3ccccc3S(N)(=O)=O)CC2)cc1NC1CCN(c2ccccc2C#N)CC1C` (stereo not drawn) [I-43, 2-(4-(5-(1-(2-Cyanophenyl)-3-methylpiperidin-4-ylamino)-2,4-dimethylbenzoyl)piperazin-1-yl)benzenesulfonamide]: the IC50 in experiment [1] (setting [3]) is over 10000 nM; in experiment [2] (Homo sapiens, MCF7, 2 h), 10 to 1000 nM; in the experiment with MCF-7 cells, 10 to 1000 nM.

Take `Cc1cc(C)c(C(=O)N2CCN(c3cncc4cn[nH]c34)CC2)cc1NC1CCN(c2ccccc2C#N)CC1` [I-44, 2-(4-(5-(4-(1H-Pyrazolo[4,3-c]pyridin-7-yl)piperazine-1-carbonyl)-2,4-dimethylphenylamino)piperidin-1-yl)benzonitrile]: the half-maximal inhibitory concentration (IC50) in experiment [1] (setting [3]) is over 10000 nM; in experiment [2] (Homo sapiens, MCF7, 2 h), 10 to 1000 nM; in the experiment with MCF-7 cells, 10 to 1000 nM.

As to `Cc1cc(C)c(C(=O)N2CCN(c3cccc(F)c3[S@](C)(=N)=O)C[C@@H]2C)c(C)c1NC1CCN(c2ccccc2C#N)CC1` [I-192, 2-(4-(3-((2S)-4-(3-fluoro-2-(S-methylsulfonimidoyl)phenyl)-2-methylpiperazine-1-carbonyl)-2,4,6-trimethylphenylamino)piperidin-1-yl)benzonitrile], in the experiment with MCF-7 cells, the IC50 lay in the range of 10 to 1000 nM.

A word on the IC50: it is the concentration at which inhibition is half-maximal.
